According to patent US10876076B2, “Detergents and cleaning agents having improved performance” (Henkel AG & Co. KGaA, priority 2016, dated 2020):

Test: Water solubility
Assay type: physicochemical
Settings: deionized water, pH 7, room temperature
Procedure: [drawing 6] 2,3-dihydroxyterephthalic acid dimethyl ester (12.89 g, 57 mmol) from step a) was suspended in N,N-dimethylethylenediamine (72.8 g, 809 mmol) and the reaction mixture was stirred for 24 hours at 100° C. After adding 100 ml of dimethylformamide (DMF), the excess of N,N-dimethylethylenediamine, together with the DMF, was removed by distillation. The solid obtained was washed 2 times using 300 ml of ethyl acetate, subsequently recrystallized from methanol/ethyl acetate (1:2.5) and dried in a vacuum. 9.6 g of 2,3-dihydroxy-N,N′-bis(2-(dimethylamino)ethyl)terephthaldiamide was obtained as a beige solid. The water solubility thereof (deionized water, pH 7, room temperature) was over 70 g/l.

solubility: > 70 mg/mL
SMILES: CN(C)CCNC(=O)c1ccc(C(=O)NCCN(C)C)c(O)c1O [S1, 2,3-dihydroxy-N,N′-bis(2-(dimethylamino)ethyl) terephthaldiamide]
